In assay [1] the test system is HCT116 (human colorectal carcinoma) cells. Put plainly: cells. The settings on record: 72 hours incubation, phosphatase assay; read-out: IC50, HCT116. It counts as cell-based. How it is done:
(§1) Compounds were tested for their cell growth inhibition of L1210 (ATCC no. CCL-219, mouse lymphocytic leukemia) cells, HCT116 (ATCC no. CCL-247, human colorectal carcinoma) cells, and HCT116/VM46 (a vinblastine-resistant strain of HCT116) cells in culture. A population of cells (>1×10^6 cells/mL as determined with a hemocytometer) was diluted with an appropriate amount of Dulbecco's Modified Eagle Medium (DMEM, Gibco) containing 10% fetal bovine serum (FBS, Gibco) to a final concentration of 30000 cells/mL.
(§2) To each well of a 96-well plate (Corning Costar), 100 μL of the cell media solution was added with a multichannel pipet. The cultures were incubated at 37° C. in an atmosphere of 5% CO2 and 95% humidified air for 24 hours. The test compounds were added to the plate as follows: test substances were diluted in DMSO to a concentration of 1 mM and 10-fold serial dilutions were performed on a separate 96-well plate. Fresh culture medium (100 μL) was added to each well of cells to constitute 200 μL of medium per well followed by 2 μL of each test agent. Compounds were tested in duplicate (n=2-18 times) at six concentrations between 0-1000 nM or 0-10000 nM. Following addition, cultures were incubated for an additional 72 hours.
(§3) A phosphatase assay was used to establish the IC50 values as follows: the media in each cell was removed and 100 μL of phosphatase solution (100 mg phosphatase substrate in 30 mL of 0.1 M NaOAc, pH 5.5, 0.1% Triton X-100 buffer) was added to each well. The plates were incubated at 37° C. for either 5 minutes (L1210) or 15 minutes (HCT116 and HCT116/VM46). After the given incubation time, 50 μL of 0.1 N NaOH was added to each well and the absorption at 405 nm was determined using a 96 well plate reader. As the absorption is directly proportional to the number of living cells, the IC50 values were calculated and the reported values represent of the average of 4-36 determinations (SD±10%).

In assay [2] the test system is L1210 (mouse lymphocytic leukemia) cells. As to the kind of experiment: Cell growth inhibition assay, L1210. The class given is cell-based. The settings on record: 72 hours incubation, phosphatase assay. As to the method: as §1, §2, §3
Assay [3] relates to HCT116/VM46 (a vinblastine-resistant strain of HCT116) cells. Put plainly: Cell growth inhibition assay, HCT116/VM46. It counts as cell-based, human. As to conditions: 72 hours incubation, phosphatase assay; Pgp-overexpressing resistant line. How it is done: as §1, §2, §3

Structures are written as SMILES.

Regarding `CCC1(NC(=O)N2CCC(OC)C2)CC2CN(CCc3c([nH]c4ccccc34)C(C(=O)OC)(c3cc4c(cc3OC)N(C)C3C(O)(C(=O)OC)C(OC(C)=O)C5(CC)C=CCN6CCC43C65)C2)C1` (mixture of isomers) [Compound 16], the IC50 in assay [1] amounted to 1 nM; in assay [2], 3.3 nM; in assay [3] it was 25 nM.

Turning to `CCC1(NC(=O)N2CCC(Br)C2)CC2CN(CCc3c([nH]c4ccccc34)C(C(=O)OC)(c3cc4c(cc3OC)N(C)C3C(O)(C(=O)OC)C(OC(C)=O)C5(CC)C=CCN6CCC43C65)C2)C1` (mixture of isomers) [Compound 19], the IC50 in assay [1] stood at 0.9 nM; in assay [2], 3.1 nM; in assay [3], 25 nM.

For the compound `CC[C@]1(NC(=O)N2CCC(N(C)C)C2)C[C@H]2CN(CCc3c([nH]c4ccccc34)[C@@](C(=O)OC)(c3cc4c(cc3OC)N(C)[C@H]3[C@@](O)(C(=O)OC)[C@H](OC(C)=O)[C@]5(CC)C=CCN6CC[C@]43[C@@H]65)C2)C1` (single isomer, unassigned) [Compound 10], the IC50 in assay [1] is 20 nM; in assay [2] it was 20 nM; in assay [3], 500 nM.

In the case of `CC[C@]1(NC(=O)N2CCC(N(C)C)C2)C[C@H]2CN(CCc3c([nH]c4ccccc34)[C@@](C(=O)OC)(c3cc4c(cc3OC)N(C)[C@H]3[C@@](O)(C(=O)OC)[C@H](OC(C)=O)[C@]5(CC)C=CCN6CC[C@]43[C@@H]65)C2)C1` (single isomer, unassigned) [Compound 11], the concentration for half-maximal inhibition (IC50) worked out at 6.2 nM in assay [1], 14 nM in assay [2] and 390 nM in assay [3].

Regarding `CC[C@]1(NC(=O)N2CCC(F)C2)C[C@H]2CN(CCc3c([nH]c4ccccc34)[C@@](C(=O)OC)(c3cc4c(cc3OC)N(C)[C@H]3[C@@](O)(C(=O)OC)[C@H](OC(C)=O)[C@]5(CC)C=CCN6CC[C@]43[C@@H]65)C2)C1` (single isomer, unassigned) [Compound 17], the IC50 in assay [1] was 0.64 nM; in assay [2], 0.62 nM; in assay [3], 7.2 nM.

On to `CC[C@]1(NC(=O)N2CCC(F)C2)C[C@H]2CN(CCc3c([nH]c4ccccc34)[C@@](C(=O)OC)(c3cc4c(cc3OC)N(C)[C@H]3[C@@](O)(C(=O)OC)[C@H](OC(C)=O)[C@]5(CC)C=CCN6CC[C@]43[C@@H]65)C2)C1` (single isomer, unassigned) [Compound 18], for which the IC50 in assay [1] amounted to 0.61 nM; in assay [2] it was 0.6 nM; in assay [3] it was 20 nM.

In the case of `CC[C@]1(NC(=O)N2CCC(C#N)C2)C[C@H]2CN(CCc3c([nH]c4ccccc34)[C@@](C(=O)OC)(c3cc4c(cc3OC)N(C)[C@H]3[C@@](O)(C(=O)OC)[C@H](OC(C)=O)[C@]5(CC)C=CCN6CC[C@]43[C@@H]65)C2)C1` (single isomer, unassigned) [Compound 20], the IC50 in assay [1] was 1.5 nM; in assay [2] it was 3.7 nM; in assay [3] it was 60 nM.

Take `CC[C@]1(NC(=O)N2CCC(C#N)C2)C[C@H]2CN(CCc3c([nH]c4ccccc34)[C@@](C(=O)OC)(c3cc4c(cc3OC)N(C)[C@H]3[C@@](O)(C(=O)OC)[C@H](OC(C)=O)[C@]5(CC)C=CCN6CC[C@]43[C@@H]65)C2)C1` (single isomer, unassigned) [Compound 21]: the IC50 in assay [1] is 1.8 nM; in assay [2], 5.1 nM; in assay [3] it was 60 nM.

On to `CC[C@]1(NC(=O)N2CC=CC2)C[C@H]2CN(CCc3c([nH]c4ccccc34)[C@@](C(=O)OC)(c3cc4c(cc3OC)N(C)[C@H]3[C@@](O)(C(=O)OC)[C@H](OC(C)=O)[C@]5(CC)C=CCN6CC[C@]43[C@@H]65)C2)C1` [Compound 22], for which the IC50 in assay [1] turned out to be 0.5 nM; in assay [2], 0.53 nM; in assay [3], 5.7 nM.

Take `CC[C@]1(NC(=O)N2CCCCCC2)C[C@H]2CN(CCc3c([nH]c4ccccc34)[C@@](C(=O)OC)(c3cc4c(cc3OC)N(C)[C@H]3[C@@](O)(C(=O)OC)[C@H](OC(C)=O)[C@]5(CC)C=CCN6CC[C@]43[C@@H]65)C2)C1` [Compound 24]: the figures for the IC50 in assay [1], in assay [2] and in assay [3] were 3.1 nM, 4.3 nM and 35 nM, respectively.

For `CC[C@]1(NC(=O)N2CCCCCCC2)C[C@H]2CN(CCc3c([nH]c4ccccc34)[C@@](C(=O)OC)(c3cc4c(cc3OC)N(C)[C@H]3[C@@](O)(C(=O)OC)[C@H](OC(C)=O)[C@]5(CC)C=CCN6CC[C@]43[C@@H]65)C2)C1` [Compound 25], the IC50 amounted to 35 nM in assay [1], 60 nM in assay [2] and 330 nM in assay [3].

In the case of `CC[C@]1(NC(=O)N2C3CCC2CC3)C[C@H]2CN(CCc3c([nH]c4ccccc34)[C@@](C(=O)OC)(c3cc4c(cc3OC)N(C)[C@H]3[C@@](O)(C(=O)OC)[C@H](OC(C)=O)[C@]5(CC)C=CCN6CC[C@]43[C@@H]65)C2)C1` [Compound 26], the values for the IC50 in assay [1], in assay [2] and in assay [3] were 20 nM, 40 nM and 250 nM, respectively.

Take `CC[C@]1(NC(=O)N2CCc3ccccc3CC2)C[C@H]2CN(CCc3c([nH]c4ccccc34)[C@@](C(=O)OC)(c3cc4c(cc3OC)N(C)[C@H]3[C@@](O)(C(=O)OC)[C@H](OC(C)=O)[C@]5(CC)C=CCN6CC[C@]43[C@@H]65)C2)C1` [Compound 27]: the IC50 was determined as 0.69 nM in assay [1], 0.59 nM in assay [2] and 6.2 nM in assay [3].

Regarding `CC[C@]1(NC(=O)N2Cc3ccc(C)cc3C2)C[C@H]2CN(CCc3c([nH]c4ccccc34)[C@@](C(=O)OC)(c3cc4c(cc3OC)N(C)[C@H]3[C@@](O)(C(=O)OC)[C@H](OC(C)=O)[C@]5(CC)C=CCN6CC[C@]43[C@@H]65)C2)C1` [Compound 30], the IC50 in assay [1] worked out at 0.44 nM; in assay [2], 0.41 nM; in assay [3], 5.9 nM.

With `CC[C@]1(NC(=O)N2Cc3ccc(F)cc3C2)C[C@H]2CN(CCc3c([nH]c4ccccc34)[C@@](C(=O)OC)(c3cc4c(cc3OC)N(C)[C@H]3[C@@](O)(C(=O)OC)[C@H](OC(C)=O)[C@]5(CC)C=CCN6CC[C@]43[C@@H]65)C2)C1` [Compound 31], the IC50 worked out at 0.52 nM in assay [1], 0.63 nM in assay [2] and 5.2 nM in assay [3].

Turning to `CC[C@]1(NC(=O)N2Cc3ccc(Cl)cc3C2)C[C@H]2CN(CCc3c([nH]c4ccccc34)[C@@](C(=O)OC)(c3cc4c(cc3OC)N(C)[C@H]3[C@@](O)(C(=O)OC)[C@H](OC(C)=O)[C@]5(CC)C=CCN6CC[C@]43[C@@H]65)C2)C1` [Compound 32], the IC50 amounted to 0.55 nM in assay [1], 0.5 nM in assay [2] and 5.7 nM in assay [3].

On to `CC[C@]1(NC(=O)N2Cc3ccc(Br)cc3C2)C[C@H]2CN(CCc3c([nH]c4ccccc34)[C@@](C(=O)OC)(c3cc4c(cc3OC)N(C)[C@H]3[C@@](O)(C(=O)OC)[C@H](OC(C)=O)[C@]5(CC)C=CCN6CC[C@]43[C@@H]65)C2)C1` [Compound 33], for which the IC50 in assay [1] is 0.56 nM; in assay [2], 0.62 nM; in assay [3] it was 6.4 nM.

`CC[C@]1(NC(=O)N2Cc3ccc(C(F)(F)F)cc3C2)C[C@H]2CN(CCc3c([nH]c4ccccc34)[C@@](C(=O)OC)(c3cc4c(cc3OC)N(C)[C@H]3[C@@](O)(C(=O)OC)[C@H](OC(C)=O)[C@]5(CC)C=CCN6CC[C@]43[C@@H]65)C2)C1` [Compound 34]: the IC50 in assay [1] is 0.67 nM; in assay [2], 0.59 nM; in assay [3] it was 6.2 nM.

For `CC[C@]1(NC(=O)N2Cc3ccc(N)cc3C2)C[C@H]2CN(CCc3c([nH]c4ccccc34)[C@@](C(=O)OC)(c3cc4c(cc3OC)N(C)[C@H]3[C@@](O)(C(=O)OC)[C@H](OC(C)=O)[C@]5(CC)C=CCN6CC[C@]43[C@@H]65)C2)C1` [Compound 36], the IC50 was determined as 0.42 nM in assay [1], 0.47 nM in assay [2] and 6.8 nM in assay [3].

For the compound `CC[C@]1(NC(=O)N2Cc3ccc(NC)cc3C2)C[C@H]2CN(CCc3c([nH]c4ccccc34)[C@@](C(=O)OC)(c3cc4c(cc3OC)N(C)[C@H]3[C@@](O)(C(=O)OC)[C@H](OC(C)=O)[C@]5(CC)C=CCN6CC[C@]43[C@@H]65)C2)C1` [Compound 37], the IC50 was 0.43 nM in assay [1], 0.45 nM in assay [2] and 4.6 nM in assay [3].

On to `CC[C@]1(NC(=O)N2Cc3ccc(N(C)C)cc3C2)C[C@H]2CN(CCc3c([nH]c4ccccc34)[C@@](C(=O)OC)(c3cc4c(cc3OC)N(C)[C@H]3[C@@](O)(C(=O)OC)[C@H](OC(C)=O)[C@]5(CC)C=CCN6CC[C@]43[C@@H]65)C2)C1` [Compound 38], for which the IC50 was 0.62 nM in assay [1], 0.5 nM in assay [2] and 3.9 nM in assay [3].

For `CCCNc1ccc2c(c1)CN(C(=O)N[C@@]1(CC)C[C@H]3CN(CCc4c([nH]c5ccccc45)[C@@](C(=O)OC)(c4cc5c(cc4OC)N(C)[C@H]4[C@@](O)(C(=O)OC)[C@H](OC(C)=O)[C@]6(CC)C=CCN7CC[C@]54[C@@H]76)C3)C1)C2` [Compound 39], the IC50 stood at 0.31 nM in assay [1], 0.4 nM in assay [2] and 4.6 nM in assay [3].

The IC50 is the concentration needed to halve the response being measured.

The values are drawn from patent publication US10975101B2, “Ultra-potent vinca alkaloids: added molecular complexity further disrupts the tublin dimer-dimer interface” (priority 2016, dated 2021).
